Reference: paper PMC11783063, “Design, synthesis, and apoptotic antiproliferative action of new benzimidazole/1,2,3-triazole hybrids as EGFR inhibitors” (Frontiers in Chemistry, 2025)

Columns and labels:
[1] = system: Panc-1 (pancreatic cancer cell line); assay: Antiproliferative assay, Panc-1; type: cell-based, human; conditions: Homo sapiens, PANC-1; read-out: Antiproliferative activity IC50 ± SEM, Panc-1
Source text: Refer to Supplementary Appendix A for more information.
DMSO (0.1%) was used as control.

[2] = target: EGFR (Homo sapiens, UniProt P00533); assay: EGFR-TK inhibitory assay
EGFR, sequence (P00533 669-1210): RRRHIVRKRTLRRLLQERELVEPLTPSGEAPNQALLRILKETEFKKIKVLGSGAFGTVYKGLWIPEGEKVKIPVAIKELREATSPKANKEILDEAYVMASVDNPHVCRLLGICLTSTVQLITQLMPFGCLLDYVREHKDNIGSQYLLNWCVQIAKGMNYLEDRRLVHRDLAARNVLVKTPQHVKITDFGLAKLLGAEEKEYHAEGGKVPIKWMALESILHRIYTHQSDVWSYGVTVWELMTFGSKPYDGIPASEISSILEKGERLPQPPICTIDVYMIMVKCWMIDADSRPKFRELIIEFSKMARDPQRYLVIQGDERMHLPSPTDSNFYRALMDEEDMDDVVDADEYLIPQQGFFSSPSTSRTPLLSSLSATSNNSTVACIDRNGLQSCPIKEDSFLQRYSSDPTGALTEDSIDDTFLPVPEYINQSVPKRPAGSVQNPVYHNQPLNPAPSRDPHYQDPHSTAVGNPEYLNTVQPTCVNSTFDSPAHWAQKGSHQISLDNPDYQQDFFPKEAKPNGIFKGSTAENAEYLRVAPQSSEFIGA
Description: To record autophosphorylation level, EGFR kinase assay was carried out on the basis of DELFIA/Time-Resolved Fluorometry. […] Each compound (10 µL) was incubated with recombinant enzyme (10 µL, 5 ng for EGFR, 1:80 dilution in 100 mM HEPES) for 10 min at 25 °C, subsequent to the addition of 5X buffer (10 µL, containing 2 mM MnCl2, 100 µM Na3VO4, 20 mM HEPES and 1 mM DTT) and ATP-MgCl2 (20 µL, containing 0.1 mM ATP and 50 mM MgCl2) and incubation for 1h. The negative and positive controls were included in each plate by the incubation of enzyme either with or without ATP-MgCl2. The liquid was removed after incubation and the plates were washed thrice using wash buffer. Europium-tagged antiphosphotyrosine antibody (75 µL, 400 ng) was added to each well followed by incubation of 1h and then washing of the plates using buffer. […] The autophosphorylation percentage inhibition by compounds was calculated using the following equation:

[3] = system: Bax; assay: Bax activation assay in MCF-7 cells; type: cell-based, human; conditions: for Bax Conc: compound at its IC50; for Bax Fold change: vs untreated control
Description: The current study supplied compounds 6i and 10e to breast (MCF-7) cancer cell lines at their respective IC50 values. This led to a notable elevation of pro-apoptotic Bax expression, with a fold increase of 34 for compound 6i and 36 for compound 10e.
Compounds 6i and 10e were assessed for their ability to activate caspase-3, caspase-8, and Bax, as well as to downregulate the anti-apoptotic protein Bcl2 in the MCF-7 breast cancer cell line ([Abdelbaset et al., 2019]). Supplementary Appendix A provides more details.
Bring all reagents, except the human Bax-α Standard, to room temperature for at least 30 minutes prior to opening. The human Bax-α Standard solution should not be left at room temperature for more than 10 minutes. All standards, controls and samples should be run in duplicate. Refer to the Assay Layout Sheet to determine the number of wells to be used and put any remaining wells with the desiccant back into the pouch and seal the ziploc. Store unused wells at 4 °C. Pipet 100 μL of Assay Buffer into the S0 (0 pg/mL standard) wells. Pipet 100 μL of Standards #1 through #6 into the appropriate wells. Pipet 100 μL of the Samples into the appropriate wells. Tap the plate gently to mix the contents. Seal the plate and incubate at room temperature on a plate shaker for 1 hour at ~500 rpm. Empty the contents of the wells and wash by adding 400 μL of wash solution to every well. Repeat the wash 4 more times for a total of 5 washes. After the final wash, empty or aspirate the wells and firmly tap the plate on a lint free paper towel to remove any remaining wash buffer. Pipet 100 μL of yellow Antibody into each well, except the Blank. Seal the plate and incubate at room temperature on a plate shaker for 1 hour at ~500 rpm. Empty the contents of the wells and wash by adding 400 μL of wash solution to every well. Repeat the wash 4 more times for a total of 5 washes. After the final wash, empty or aspirate the wells and firmly tap the plate on a lint free paper towel to remove any remaining wash buffer. Add 100 μL of blue Conjugate to each well, except the Blank. Seal the plate and incubate at room temperature on a plate shaker for 30 minutes at ~500 rpm. Empty the contents of the wells and wash by adding 400 μL of wash solution to every well. Repeat the wash 4 more times for a total of 5 washes. After the final wash, empty or aspirate the wells and firmly tap the plate on a lint free paper towel to remove any remaining wash buffer. Pipet 100 μL of Substrate Solution into each well. Incubate for 30 minutes at room temperature on a plate shaker at ~500 rpm. Pipet 100 μL Stop Solution to each well. Blank the plate reader against the Blank wells, read the optical density at 450 nm. Calculate the average net Optical Density (OD) bound for each standard and sample by subtracting the average Blank OD from the average OD for each standard and sample. Using linear graph paper, plot the Average Net OD for each standard versus Bax concentration in each standard. Approximate a straight line through the points. The concentration of Bax in the unknowns can be determined by interpolation.

O=[N+]([O-])c1cccc(-n2cc(Cn3c(SCc4ccccc4)nc4ccccc43)nn2)c1 [10e] was tested, and the IC50 [1] was 26 ± 2 nM, the IC50 [2] was 73 ± 4 nM and the “Bax Conc” value [3] was 325 ± 3 pg/mL. The “Bax Fold change” value [3] was 36.
For NS(=O)(=O)c1ccc(-n2cc(CSc3nc4ccccc4[nH]3)nn2)cc1 [6i, 4-(4-(((1H-benzimidazol-2-yl)thio)methyl)-1H-1,2,3-triazol-1-yl)benzene-sulfonamide], the IC50 [1] was 28 ± 2 nM, the IC50 [2] was 78 ± 5 nM and the “Bax Conc” value [3] was 310 ± 3 pg/mL. For the same compound, the “Bax Fold change” value [3] was 34.
